Active and inactive are the calls of the source.
Columns and labels:
[1] = target: T1, Type-1 angiotensin II receptor (Homo sapiens, UniProt P30556); test: AT1 receptor agonists, dose response, selectivity assay for APJ receptor agonist project, cell-based, uHTS hits (AID 488865); type: functional;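 also: beta-arrestin recruitment to AT1 measured by enzyme fragment complementation luminescence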
T1 sequence (P30556 whole entry): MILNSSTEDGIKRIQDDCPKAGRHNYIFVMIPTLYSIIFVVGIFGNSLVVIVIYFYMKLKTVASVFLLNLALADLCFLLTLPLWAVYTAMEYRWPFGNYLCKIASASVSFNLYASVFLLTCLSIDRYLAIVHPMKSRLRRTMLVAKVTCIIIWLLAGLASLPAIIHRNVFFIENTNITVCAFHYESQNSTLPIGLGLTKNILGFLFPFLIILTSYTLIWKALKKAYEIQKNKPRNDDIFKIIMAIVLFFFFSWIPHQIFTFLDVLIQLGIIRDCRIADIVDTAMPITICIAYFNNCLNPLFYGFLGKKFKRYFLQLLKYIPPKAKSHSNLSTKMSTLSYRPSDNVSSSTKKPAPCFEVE

[2] = Shn3 3'UTR reporter inhibitors, dose response, cell-based, Clone20 osteoblasts, firefly luciferase, cherry-picked (AID 624132); type: functional;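 also: firefly luciferase luminescence from reporter carrying the Shn3 3'UTR in osteoblasts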
[3] = target: E3 ubiquitin-protein ligase Mdm2/Protein Mdm4 (Homo sapiens, UniProt O15151+Q00987); test: Mdm2-MdmX interaction inhibitors, dose response, luminescence detection (AID 504593); type: functional
[4] = target: T2, Heat shock factor protein 1 (Mus musculus, UniProt P38532); test: HSF1 potentiators in luciferase reporter cells, confirmation, cell-based, NIH3T3, luminescence, dose retest (AID 435004); type: functional;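 also: stress induced by proteasome inhibitor MG132 added 30 min after compound; luciferase reporter driven by HSF1 response element in NIH3T3 cells; actives raise luminescence as potentiators of the MG132 stress response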
T2 sequence (P38532 whole entry): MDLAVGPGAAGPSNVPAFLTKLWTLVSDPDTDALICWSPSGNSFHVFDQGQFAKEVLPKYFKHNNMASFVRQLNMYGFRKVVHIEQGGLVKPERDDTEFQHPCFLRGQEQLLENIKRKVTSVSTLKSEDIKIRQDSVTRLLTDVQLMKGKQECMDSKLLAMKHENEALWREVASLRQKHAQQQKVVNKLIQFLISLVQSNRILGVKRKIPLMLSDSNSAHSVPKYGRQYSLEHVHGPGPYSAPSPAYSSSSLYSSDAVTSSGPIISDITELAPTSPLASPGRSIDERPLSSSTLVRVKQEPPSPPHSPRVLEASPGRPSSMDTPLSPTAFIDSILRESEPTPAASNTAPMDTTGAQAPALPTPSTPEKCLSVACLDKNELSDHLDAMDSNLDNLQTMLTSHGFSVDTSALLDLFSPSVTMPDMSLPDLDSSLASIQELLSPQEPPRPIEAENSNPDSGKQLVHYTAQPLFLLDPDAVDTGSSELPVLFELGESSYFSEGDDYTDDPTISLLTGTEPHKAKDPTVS

[5] = HepG2 cell cytotoxicity, dose response, cytotoxicity control for Shn3 inhibitor project, CellTiter-Glo, cherry-picked (AID 624134); type: functional, cell-based
[6] = control 3'UTR Renilla luciferase suppression, dose response, counter-screen for Shn3 inhibitor project, cell-based, Clone20-Shn3RL, cherry-picked (AID 624133); type: functional
[7] = target: T3, Runt-related transcription factor 1/Core-binding factor subunit beta (Homo sapiens, UniProt Q01196+Q13951); test: inhibitors of RUNX1 Runt–CBFb-SMMHC binding, biochemical, TR-FRET (AID 1438); type: protein assay
[8] = target: T4, Aryl hydrocarbon receptor (Homo sapiens, UniProt P35869); test: Luminescence-based cell-based high throughput dose response assay for activators of the Aryl Hydrocarbon Receptor (AHR). [Related pubchem assays: 2796 (Primary screen (AHR activators in singlicate)), 2845 (Confirmation screen (AHR activators in triplicate)), 434939 (Counterscreen (PXR activators in triplicate)), 2804 (Summary (AHR activators))]; type: ADME
T4 sequence (P35869 whole entry): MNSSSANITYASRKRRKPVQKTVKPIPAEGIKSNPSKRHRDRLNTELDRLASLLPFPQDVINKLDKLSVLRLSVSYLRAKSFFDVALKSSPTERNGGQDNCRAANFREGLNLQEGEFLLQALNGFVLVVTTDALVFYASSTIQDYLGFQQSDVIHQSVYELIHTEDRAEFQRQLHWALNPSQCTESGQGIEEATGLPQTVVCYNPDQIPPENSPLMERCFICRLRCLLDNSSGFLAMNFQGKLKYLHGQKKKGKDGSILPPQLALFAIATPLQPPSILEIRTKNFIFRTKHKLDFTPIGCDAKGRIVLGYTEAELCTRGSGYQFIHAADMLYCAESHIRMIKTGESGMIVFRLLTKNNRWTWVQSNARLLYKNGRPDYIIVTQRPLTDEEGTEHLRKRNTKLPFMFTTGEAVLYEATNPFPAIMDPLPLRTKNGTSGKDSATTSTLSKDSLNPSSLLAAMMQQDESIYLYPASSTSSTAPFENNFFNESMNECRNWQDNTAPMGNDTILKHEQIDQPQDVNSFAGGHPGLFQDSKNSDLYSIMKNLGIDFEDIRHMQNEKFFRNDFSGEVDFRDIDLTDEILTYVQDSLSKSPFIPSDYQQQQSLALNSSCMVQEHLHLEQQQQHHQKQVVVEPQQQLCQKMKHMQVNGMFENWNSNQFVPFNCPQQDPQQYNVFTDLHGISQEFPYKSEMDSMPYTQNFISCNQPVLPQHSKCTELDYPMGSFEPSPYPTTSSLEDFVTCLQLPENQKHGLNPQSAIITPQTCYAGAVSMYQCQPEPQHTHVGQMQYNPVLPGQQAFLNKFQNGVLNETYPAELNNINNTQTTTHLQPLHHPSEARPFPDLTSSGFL

[9] = target: T3, Runt-related transcription factor 1/Core-binding factor subunit beta; test: inhibitors of RUNX1 Runt–CBFb-SMMHC binding, primary screen, biochemical, FRET, Cerulean-Runt, Venus-CBFb-SMMHC, uHTS (AID 1434); type: protein assay;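 also: partner is the CBFb-SMMHC leukemia fusion protein rather than wild-type CBFb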
Troponin, cardiac muscle = Troponin, cardiac muscle (Homo sapiens, UniProt P19429+P45379+P63316); test: Fluorescence-based biochemical high throughput dose response assay for activators of the calcium sensitivity of cardiac Regulated Thin Filaments (RTF). [Related pubchem assays (depositor defined):AID493008, AID493018, AID504382, AID504383]; type: protein-complex assay
[10] = target: T5, DNA repair and recombination protein RAD54-like (Homo sapiens, UniProt Q92698); test: inhibitors of human RAD54 branch migration, confirmation, biochemical, fluorescence, cherry-picked samples, dose series (AID 651657); type: functional
T5 sequence (Q92698 whole entry): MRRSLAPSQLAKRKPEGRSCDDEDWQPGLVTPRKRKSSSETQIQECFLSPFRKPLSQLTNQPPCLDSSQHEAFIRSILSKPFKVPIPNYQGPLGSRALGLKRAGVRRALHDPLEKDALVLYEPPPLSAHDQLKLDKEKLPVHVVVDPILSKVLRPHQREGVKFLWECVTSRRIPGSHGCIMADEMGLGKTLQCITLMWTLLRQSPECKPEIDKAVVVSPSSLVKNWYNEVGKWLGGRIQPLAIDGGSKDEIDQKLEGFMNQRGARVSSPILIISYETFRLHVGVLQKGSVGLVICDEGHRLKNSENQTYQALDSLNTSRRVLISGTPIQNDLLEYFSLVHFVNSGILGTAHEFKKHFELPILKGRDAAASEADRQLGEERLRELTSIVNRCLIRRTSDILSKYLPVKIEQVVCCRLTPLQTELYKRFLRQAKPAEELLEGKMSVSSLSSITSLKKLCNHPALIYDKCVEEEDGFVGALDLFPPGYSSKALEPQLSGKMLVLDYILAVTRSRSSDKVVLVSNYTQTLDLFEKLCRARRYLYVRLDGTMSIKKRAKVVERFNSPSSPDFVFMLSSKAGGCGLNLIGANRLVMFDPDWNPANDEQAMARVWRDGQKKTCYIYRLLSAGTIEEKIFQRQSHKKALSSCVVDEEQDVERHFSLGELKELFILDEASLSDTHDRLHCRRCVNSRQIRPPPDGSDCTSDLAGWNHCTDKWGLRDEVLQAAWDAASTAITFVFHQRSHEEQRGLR

[11] = target: DNA damage-inducible transcript 3 protein (Mus musculus, UniProt P35639); type: functional, Cricetulus griseus
[12] = target: Alkaline phosphatase, placental type (Homo sapiens, UniProt P05187); test: PLAP enzyme inhibitors, confirmation, biochemical, luminescence (AID 1512); type: functional
[13] = target: Glyceraldehyde-3-phosphate dehydrogenase (Homo sapiens, UniProt P04406)

Question: For CCCSc1nc(O)c(CC)c(=O)n1C(C)CC (centres undefined), which EC50 [1] is on record?
Answer: > 100 µM (inactive)

Question: For CCOC(=O)/C=C/C(=O)OCC(=O)NC(c1ccccc1)c1ccccc1, which AC50 [2] is on record?
Answer: 5.14 µM (active)

Question: What about the IC50 [3] of the same compound?
Answer: 3.28 µM (active)

Question: What about the EC50 [4] of the same compound?
Answer: 13.4 µM (active)

Question: And the AC50 [5]?
Answer: > 70 µM (inactive)

Question: And the AC50 [6]?
Answer: 22 µM (active)

Question: Which results are given for CC(=O)Nc1ccc2cc3ccc(NC(C)=O)cc3nc2c1?
Answer: IC50 [7]: > 100 µM (inactive); EC50 [8]: > 3.39 µM (active); IC50 [9]: 14.1 µM (active); EC50 (Troponin, cardiac muscle): 38.3 µM (inactive); AC50 [10]: 86.2 µM (active)

Question: For C/C(=N\NC(=O)c1nn(C)c(C)c1Br)c1ccc(NC(=O)c2ccoc2C)cc1, which “Absolute IC50 (CHOP)” value [11] is on record?
Answer: 10 µM

Question: With O=C(NCCO)c1cc(-c2ccc(Cl)cc2Cl)n[nH]1 as the compound, how does the IC50 [12] read?
Answer: 21.1 µM (active)

Question: And the IC50 [13]?
Answer: > 100 µM (not active)
